What is called melting point is the temperature of the solid-liquid transition. Broadly, the IC50 is the midpoint of a concentration-inhibition curve.

The target in series [1] is T1, human PAR-1 (Homo sapiens, UniProt P25116).
T1 construct: expressed in transfected cells; host or cells: CHO-K1 (transformant flag/trn/CHO-K1)
T1 sequence (P25116 22-425): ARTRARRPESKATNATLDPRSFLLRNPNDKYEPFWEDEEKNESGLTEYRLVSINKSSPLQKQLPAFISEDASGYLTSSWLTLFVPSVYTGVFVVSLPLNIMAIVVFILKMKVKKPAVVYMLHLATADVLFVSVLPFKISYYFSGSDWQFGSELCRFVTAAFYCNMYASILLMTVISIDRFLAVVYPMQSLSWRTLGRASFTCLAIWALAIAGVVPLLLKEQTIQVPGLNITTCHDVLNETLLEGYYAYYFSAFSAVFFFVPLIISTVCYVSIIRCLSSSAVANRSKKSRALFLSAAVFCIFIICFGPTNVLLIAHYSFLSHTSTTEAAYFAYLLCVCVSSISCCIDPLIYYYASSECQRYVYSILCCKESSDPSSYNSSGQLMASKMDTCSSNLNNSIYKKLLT
Kind of series: GTPγS binding assay with membrane fraction of human PAR-1-expressing cells. The following applies: [35S]-GTPγS binding to human PAR-1-expressing cell membrane fraction; agonist peptide SFLLRN-NH2. The series is classed as biochemical. Here is the method: The preparation method of the membrane fraction used for the GTPγS binding assay is shown below.
Human PAR-1-expressing cells were inoculated to an F500 flask at 1.8×10^5 cells/flask, and the cells were cultured for 2 days. The cells were detached with saline containing 0.02% EDTA. The cells were centrifuged (2000 rpm, 10 min), cell pellets were re-suspended in 12 ml of homogenate buffer (10 mM NaHCO3, 1 mM EDTA, protease inhibitor cocktail, pH 7.4), and homogenized by Polytron™. The residual cells were removed by centrifugation (2000 rpm, 10 min), and the supernatant was ultracentrifuged (Beckman Instruments 70 Ti type rotor, 30000 rpm, 1 hr) to give a membrane fraction of human PAR-1-expressing cells in a sediment, which was preserved at −80° C. and dissolved before use for an assay.
The measurement method of the GTPγS binding activity is shown below.
Then, the reaction mixture was filtered through a GF/C filter, washed 4 times with 300 μL of saline, and the radioactivity of the filter was measured by a TopCount scintillation counter.
The concentration (IC50 value) of the test compound necessary for inhibiting the GTPγS binding activity by 50% was calculated using PRISM3.0 (PraphPad software).
A general note: GTPγS resists hydrolysis and so accumulates on activated G proteins.

For series [2], the target named is T1, human PAR-1. The experiment in a line: Evaluation of PAR-1 antagonistic action by intracellular calcium concentration variation assay (FLIPR). Particulars: human PAR-1-expressing CHO cells, agonist peptide SFLLRN-NH2 final concentration 0.3 nM, Fluo-3AM. The series is classed as cell-based. Here is the method:
Evaluation of PAR-1 Antagonistic Action of Compound by Intracellular Calcium Concentration Variation Assay
Human PAR-1-expressing cells was plated at 3×10^4 cells/well on a 96 well clear bottom plate (Corning 3904 type) and cultured for 16-24 hr. The medium was removed from the wells of the plate, measurement buffer (50 μL, 115 mM NaCl, 5.4 mM KCl, 1.8 mM CaCl2, 0.8 mM MgCl2, 13.8 mM D-glucose, 0.1% BSA, 20 mM HEPES, pH 7.4) containing 2.5 μg/mL of Fluo-3AM (manufactured by Dojindo Laboratories), 0.08% Pluronic F-127 and 2.5 mM Probenecid was added to the cells and the mixture was reacted at 37° C. for 1 hr. The cells were washed twice with the measurement buffer. After addition of the measurement buffer (100 μL), a measurement buffer (50 μL) containing a test compound was added, and the mixture was stood still for 10 min. The plate was moved to a fluorometry image-plate reader (FLIPR-1, manufactured by Molecular Devices). […] The intracellular calcium concentration was measured by FLIPR.
Background: A change in cytosolic calcium serves as a functional read-out for many receptors and channels.

Series [3] relates to platelet rich plasma (PRP). The experiment in a line: Platelet aggregation test (platelet rich plasma), thrombin-induced. The series is classed as cell-based. The following applies: human PRP, thrombin at minimum concentration causing maximum aggregation; test compound concentration not given. Here is the method:
Platelet Aggregation Test (Platelet Rich Plasma)
Using a syringe filled in advance with 3.8% sodium citrate solution (Chitral: Yamanouchi Pharmaceutical Co., Ltd.), its 9-fold volume of venous blood was taken from healthy volunteers. After blood sampling, the blood was centrifuged at room temperature, 2700 G for […] and 15 min to give platelet rich plasma (PRP) and platelet poor plasma (PPP), respectively. PRP was applied to an automated blood cell counter (Sysmex) to adjust the platelet count to 300,000/μL, and fibrin polymerization inhibitory peptide was added thereto to a final concentration of 4 mM. The platelet aggregation rate was measured using an aggregometer (Kowa). To be specific, 200 μL of PRP was placed in a cuvette with a microstirrer, preheated at 37° C. for 2 min, and a test compound solution (20 μL) was added. The mixture was further preheated at 37° C. for 2 min with stirring (1000 rpm), thrombin (20 μL) was added, and changes in the transmittance caused by platelet aggregation were recorded over time. Thrombin was used at a minimum concentration causing maximum aggregation, and the aggregation suppressive rate (%) was calculated from the ratio of the maximum aggregation rate with addition of test compound to the maximum aggregation rate of control group. The test compound was dissolved in dimethyl sulfoxide and diluted with saline before use.

Turning to `CCNC(=O)c1ccc(-n2nnc(C(=O)NC3CC3)c2COCc2ccccc2)c(OCc2ccccc2)c1` [Example 316, 1-{2-(benzyloxy)-4-[(ethylamino)carbonyl]phenyl}-5-[(benzyloxy)methyl]-N-cyclopropyl-1H-1,2,3-triazole-4-carboxamide], the melting point is 132 °C.
With `CCNC(=O)c1ccc(-n2nnc(C(=O)NC3CC3)c2CN2CCOCC2)cc1` [Example 128, N-cyclopropyl-1-{4-[(ethylamino)carbonyl]phenyl}-5-(morpholin-4-ylmethyl)-1H-1,2,3-triazole-4-carboxamide], the melting point is 234 °C (dec.).
Take `CCCc1c(C(=O)NCCOc2ccccc2)nnn1-c1ccc(NC(C)=O)cc1` [Compound 3]: on human PAR-1 [1], the IC50 was 1.9 µM.
`CCNC(=O)c1ccc(-n2nnc(C(=O)NC3CC3)c2CCCCCF)cc1` [Example 111, N-cyclopropyl-1-{4-[(ethylamino)carbonyl]phenyl}-5-(5-fluoropentyl)-1H-1,2,3-triazole-4-carboxamide] returned a melting point of 150.3 °C. The IC50 on human PAR-1 [2] was 1600 nM.
`CCCc1c(C(=O)NC2CC2)nnn1-c1ccc(NC(C)=O)cc1` [Compound 1, 1-[4-(acetylamino)phenyl]-N-cyclopropyl-5-propyl-1H-1,2,3-triazole-4-carboxamide, reference compound] returned an IC50 at human PAR-1 [1] of 1.9 µM. Also, in series [3], the “aggregation suppressive rate (%)” value is 66%.
On to `CCNC(=O)c1ccc(-n2nnc(C(=O)NC3CC3)c2CSC)cc1` [Example 129, N-cyclopropyl-1-{4-[(ethylamino)carbonyl]phenyl}-5-[(methylthio)methyl]-1H-1,2,3-triazole-4-carboxamide], for which the melting point was determined as 192 °C. In addition, the IC50 on human PAR-1 [2] came to 740 nM.
`CCCc1c(C(=O)NCc2ccc(OC)cc2)nnn1-c1ccc(NC(C)=O)cc1` [Compound 2]: at human PAR-1 [1], the IC50 came out at 2.1 µM. Further, the “aggregation suppressive rate (%)” value in series [3] is 39%.
As for `CCNC(=O)c1ccc(-n2nnc(C(=O)NC3CC3)c2CCO)cc1` [Example 114, N-cyclopropyl-1-{4-[(ethylamino)carbonyl]phenyl}-5-(2-hydroxyethyl)-1H-1,2,3-triazole-4-carboxamide], the melting point worked out at 156 °C.
On the same count and under the same terms, under `CCNC(=O)c1ccc(-n2nnc(C(=O)NC3CC3)c2CO)c(O)c1` [Example 317, N-cyclopropyl-1-{4-[(ethylamino)carbonyl]-2-hydroxyphenyl}-5-(hydroxymethyl)-1H-1,2,3-triazole-4-carboxamide] stands 185 °C; under `C=Cc1c(C(=O)NC2CC2)nnn1-c1ccc(C(=O)NCC)cc1` [Example 115, N-cyclopropyl-1-{4-[(ethylamino)carbonyl]phenyl}-5-vinyl-1H-1,2,3-triazole-4-carboxamide], 162 °C; under `CCNC(=O)c1ccc(-n2nnc(C(=O)NC3CC3)c2CNCc2ccccc2)cc1` [Example 126, 5-[(benzylamino)methyl]-N-cyclopropyl-1-{4-[(ethylamino)carbonyl]phenyl}-1H-1,2,3-triazole-4-carboxamide], 153 °C.
On to `CCNC(=O)c1ccc(-n2nnc(C(=O)NC3CC3)c2COCc2ccccc2)cc1` [Example 94, 5-[(benzyloxy)methyl]-N-cyclopropyl-1-{4-[(ethylamino)carbonyl]phenyl}-1H-1,2,3-triazole-4-carboxamide], for which, on human PAR-1 [2], the 50% inhibitory concentration (IC50) worked out at 1700 nM.
Regarding `CCCc1c(C(=O)NC2CC2)nnn1-c1ccc(C(=O)NCC)cc1O` [Example 315, N-cyclopropyl-1-{4-[(ethylamino)carbonyl]-2-hydroxyphenyl}-5-propyl-1H-1,2,3-triazole-4-carboxamide], the melting point is 203 °C.
The same measure, in the same setting: under `CCNC(=O)c1ccc(-n2nnc(C(=O)NC3CC3)c2CN2CCCC2)cc1` [Example 127, N-cyclopropyl-1-{4-[(ethylamino)carbonyl]phenyl}-5-(pyrrolidin-1-ylmethyl)-1H-1,2,3-triazole-4-carboxamide] stands 164 °C.
In the case of `CCCc1c(C(=O)NCc2cccc(F)c2)nnn1-c1ccc(C(=O)NCC)cc1` [Example 88, 1-{4-[(ethylamino)carbonyl]phenyl}-N-(3-fluorobenzyl)-5-propyl-1H-1,2,3-triazole-4-carboxamide], the IC50 on human PAR-1 [2] stood at 720 nM.
Same read-out and setting: as for `CCNC(=O)c1ccc(-n2nnc(C(=O)NC3CC3)c2COc2ccc(Br)cc2)cc1` [Example 116, 5-[(4-bromophenoxy)methyl]-N-cyclopropyl-1-{4-[(ethylamino)carbonyl]phenyl}-1H-1,2,3-triazole-4-carboxamide], the figure is 750 nM.
Still for that read-out and setting: under `CCNC(=O)c1ccc(-n2nnc(C(=O)NC3CC3)c2COc2cccc(F)c2)cc1` [Example 414, N-cyclopropyl-1-{4-[(ethylamino)carbonyl]phenyl}-5-[(3-fluorophenoxy)methyl]-1H-1,2,3-triazole-4-carboxamide] stands 190 nM; under `CCCc1c(C(=O)NC2CC2)nnn1-c1ccc(NC(=O)CC(F)(F)F)cc1` [Example 25, N-cyclopropyl-5-propyl-1-{4-[(3,3,3-trifluoropropanoyl)amino]phenyl}-1H-1,2,3-triazole-4-carboxamide], 94 nM.
